Test results published in patent US20060166941A1, “Treatment and/or prevention of non-viral epithelial damage” (Epistem Limited, priority 2003, published 2006).
Where a name gives a salt, the structure may show the parent alone.

Columns and labels:
oral mucosa [1] = assay: In vivo protection of oral mucosa following radiation damage (20 Gy head only), ventral tongue cellularity; parameters: species or system mice; settings: 50 mg/kg 1 hr prior to 20 Gy (head only) and once a day until sampling; versus vehicle
Source text: In Vivo Protection of Oral Mucosa Following Radiation Damage. The ability of foscarnet (phosphonoformic acid trisodium salt hexahydrate) to prevent radiological damage to oral mucosa was illustrated by the following experiment. The model of cytotoxic insult used was treatment with 20 Gy X-ray radiation (head only) at a dose rate of 0.7 Gy/minute. Such radiation treatment provides a model of radiotherapy administered to patients undergoing treatment for cancer Experimental groups, each of four mice, were established as set out below: Group 1: Received intra-peritoneal injection, containing 50 mg foscarnet/kilogram bodyweight, in sterile water, one hour prior to radiation. Received one further identical injection on each of the two days following radiation. On the third day after radiation the animals were killed, and oral tissue harvested for analysis. […] Using a Zeiss AxioHOME the number of bromodeoxyuridine labelled and unlabelled cells were assessed in both the basal and suprabasal layers of the ventral surface of the tongue. The area from the basal layer to the stratum corneum stratum granulosum interface was measured along with the length of the basal layer. […] From these measurements the damage that the radiation had caused to the tongue could be assessed as overall cellularity of the tongue or the total number of cells/unit area (mm^2). […]

oral mucosa [2] = assay: In vivo protection of oral mucosa following chemotherapy (5FU) damage, ventral tongue cellularity; parameters: species or system mice; settings: 50 mg/kg intra-peritoneal 1 hr prior to 5FU (400 mg/kg x 2) and daily for three days; versus vehicle
Description: In Vivo Protection of Oral Mucosa Following Chemotherapy Damage. The ability of foscarnet (phosphonoformic acid trisodium salt hexahydrate) to prevent cytotoxic damage to oral mucosa was illustrated by the following experiment. The model of cytotoxic insult used was treatment with 2 doses of 400 mg/kilogram bodyweight 5-Flurouracil 6 hours apart. Such cytotoxic treatment provides a model of chemotherapy administered to patients undergoing treatment for cancer. Experimental groups, each of five mice, were established as set out below: Group 2: Received intra-peritoneal injection, containing 50 mg foscarnet/kilogram bodyweight, in sterile water, one hour prior to the first cytotoxic treatment (400 mg 5-Flurouracil/kilogram bodyweight). Received one further identical injection of foscarnet (50 mg/kilogram bodyweight) on each of the three days following cytotoxic treatment. […] Tissue sections were stained with thionin and using a Zeiss AxioHOME the number of cells were assessed in both the basal and suprabasal layers of the ventral surface of the tongue. The area from the basal layer to the stratum corneum stratum granulosum interface was measured along with the length of the basal layer. […] From these measurements the damage that the 5FU had caused to the tongue could be assessed as overall cellularity of the tongue or the total number of cells/unit area (mm^2). […]

digestive epithelia = assay: Diarrhoea prevention assay, 14 Gy X-ray partial body radiation; format: in vivo, mice; settings: for incidence of diarrhoea (perianal soilage): 5 mice
Source text: Diarrhoea Prevention Assay The ability of foscarnet (phosphonoformic acid trisodium salt hexahydrate) to prevent diarrhoea following radiological injury to digestive epithelia was investigated. The model of radiological insult used was treatment with 14 Gy X-ray partial body radiation (head and thorax lead shielded) at a dose rate of 0.7 Gy/minute. Such radiation treatment provides a model of radiotherapy administered to patients undergoing treatment for cancer. Three experimental groups, each of five mice, were established as set out below: Group 1: Received intra-peritoneal injection, containing 50 mg foscarnet/kilogram bodyweight, in sterile water, one hour prior to radiation treatment. Received one further identical injection on each of the next five days following radiation treatment. Group 2: Received intra-peritoneal injection, containing 100 mg foscarnet/kilogram bodyweight, in sterile water, one hour prior to radiation treatment. Received one further identical injection on each of the next five days following radiation treatment. Group 3: Vehicle control. […] Received intra-peritoneal injection, of sterile water, one hour prior to radiation treatment. Received one further identical injection on each of the next five days following radiation treatment. The incidences of both diarrhoea (measured by assessing perianal soilage twice daily) and morbidity among experimental animals were measured over the course of the seven days following radiation treatment.

SMILES: O=C(O)P(=O)(O)O [foscarnet, phosphonoformic acid trisodium salt hexahydrate]
- average number of cells/unit area, ventral tongue epithelium (FIG. 7) (oral mucosa [1]): increased
- overall cellularity of the ventral tongue over time (FIG. 6) (oral mucosa [1]): increased
- numbers of cells per unit area in the epithelium covering the ventral surface of the tongue (FIG. 4) (oral mucosa [2]): extra cells per unit area gained
- protection against the deleterious effects of radiation treatment (digestive epithelia; 50 mg per kilogram bodyweight, 14 Gy partial body): protects completely
- incidence of diarrhoea (perianal soilage) (digestive epithelia; 50 mg/kg intra-peritoneal 1 hr before 14 Gy and daily for 5 days, Day 3): No
- incidence of diarrhoea (perianal soilage) (digestive epithelia; 50 mg/kg intra-peritoneal 1 hr before 14 Gy and daily for 5 days, Day 4): No diarrhoea
- incidence of diarrhoea (perianal soilage) (digestive epithelia; 50 mg/kg intra-peritoneal 1 hr before 14 Gy and daily for 5 days, Day 5): No diarrhoea
- incidence of diarrhoea (perianal soilage) (digestive epithelia; 50 mg/kg intra-peritoneal 1 hr before 14 Gy and daily for 5 days, Day 6): No diarrhoea
- incidence of diarrhoea (perianal soilage) (digestive epithelia; 50 mg/kg intra-peritoneal 1 hr before 14 Gy and daily for 5 days, Day 7): No diarrhoea
- incidence of diarrhoea or associated morbidity compared to vehicle controls (digestive epithelia; 100 mg per kilogram bodyweight, 14 Gy partial body): reduced incidence of diarrhoea or associated morbidity
- incidence of diarrhoea (perianal soilage) (digestive epithelia; 100 mg/kg intra-peritoneal 1 hr before 14 Gy and daily for 5 days, Day 3): No
- incidence of diarrhoea (perianal soilage) (digestive epithelia; 100 mg/kg intra-peritoneal 1 hr before 14 Gy and daily for 5 days, Day 4): No diarrhoea
- incidence of diarrhoea (perianal soilage) (digestive epithelia; 100 mg/kg intra-peritoneal 1 hr before 14 Gy and daily for 5 days, Day 5): No diarrhoea
- incidence of diarrhoea (perianal soilage) (digestive epithelia; 100 mg/kg intra-peritoneal 1 hr before 14 Gy and daily for 5 days, Day 6): 2 mice had
- incidence of diarrhoea (perianal soilage) (digestive epithelia; 100 mg/kg intra-peritoneal 1 hr before 14 Gy and daily for 5 days, Day 7): 1 mouse had diarrhoea
